Tests used:
[1] = biological target: T1, Human dopamine D4 receptor (Homo sapiens, UniProt P21917); assay: Agonistic/antagonistic activity in G protein dependent pathway (aequorin intracellular calcium luminescence), D4; format: cell-based; parameters: expressed in transfected cells; host or cells: CHO-K1 or HEK293 cells; details: read-out: Maximal activity on each receptor (%): D4
T1 sequence (P21917 1-419): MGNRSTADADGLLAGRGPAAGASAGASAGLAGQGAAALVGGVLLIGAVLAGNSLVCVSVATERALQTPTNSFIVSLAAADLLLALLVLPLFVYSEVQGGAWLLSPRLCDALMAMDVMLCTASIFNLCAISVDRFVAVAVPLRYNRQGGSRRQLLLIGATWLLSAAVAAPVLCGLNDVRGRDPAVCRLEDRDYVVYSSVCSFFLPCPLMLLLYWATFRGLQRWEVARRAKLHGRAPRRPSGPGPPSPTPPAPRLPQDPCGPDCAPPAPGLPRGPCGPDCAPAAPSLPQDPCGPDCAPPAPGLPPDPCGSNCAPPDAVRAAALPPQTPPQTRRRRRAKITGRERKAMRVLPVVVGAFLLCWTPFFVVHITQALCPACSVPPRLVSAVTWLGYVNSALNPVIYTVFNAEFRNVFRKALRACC
Description: Plasmids encoding each receptor, aequorin and Gα16 were prepared, and the plasmids were transfected into CHO cells (Chinese Hamster Ovary cells) or HEK293 cells (Human Embryonic Kidney 293 cells) to prepare expressing cell lines.
The agonistic or antagonistic activity of the present compound in the G protein dependent pathway was evaluated on the basis of intracellular calcium levels as follows. CHO-K1 or HEK293 cell lines transfected with D2, D4, α1A, or α2A receptor genes were seeded in a 384-well plate, and incubated in a CO2 incubator at 37° C. for 24 hours, and then a solution of the present compound in DMSO was added into cells preloaded with coelenterazine to measure the change in luminescent signals with a FDSS (Hamamatsu Photonics K.K.). […] The agonistic activity of the present compound was calculated according to the measured luminescent signals, as the maximal activity (Emax) of the present compound. On the other hand, the antagonistic activity of the present compound was calculated according to the luminescent signals in wells with 10 μM of an endogenous ligand alone defined as 100%, as the inhibitory activity of the present compound to an endogenous ligand. EC50 value was calculated as the concentration of the present compound required to achieve a 50% response, and IC50 was calculated as the concentration of the present compound required to achieve a 50% inhibition of the Emax of an endogenous ligand.

[2] = PK study in rat (bioavailability); format: in vivo; details: plasma, oral vs intravenous administration
Description: In this study, the pharmacokinetics of the present compound can be evaluated. Specifically, a 7-week-old SD-type or WKY-type rat received the intravenous administration of a solution of the present compound in saline or the oral administration of a suspension of the present compound in carboxymethylcellulose or methylcellulose. Blood was collected from the rat at each time below.
Intravenous administration: 5 minutes, 15 minutes, 30 minutes, 1 hour, 2 hours, 4 hours, 6 hours, and 24 hours after administration
Oral administration: 15 minutes, 30 minutes, 1 hour, 2 hours, 4 hours, 6 hours, and 24 hours after administration
Plasma was collected from the blood, the levels of the present compound in the plasma were measured by a LC-MS method, and then the pharmacokinetic parameters were calculated on the basis of the level changes.

[3] = Brain penetration study in rat; format: in vivo; details: brain and plasma, unbound brain-to-plasma drug concentration ratio
Description: In this study, the brain penetration of the present compound can be evaluated. Specifically, a 7-week-old SD-type or WKY-type rat received the subcutaneous administration of a solution of the present compound in saline or the oral administration of a suspension of the present compound in methylcellulose. Plasma and brain were collected from the treated rat 0.5 hour, 1 hour or 2 hours after the administration, and then the levels of the present compound in the plasma and the brain were measured by a LC-MS method.
The protein binding ratios of the present compound to the plasma and the brain were measured by an equilibrium dialysis method.
The levels of the present compound in the plasma and the brain as well as the plasma and brain protein binding ratios are applied to the following formula, and thus Kp,uu,brain (Unbound brain-to-plasma drug concentration ratio) can be calculated. Kp,uu,brain=(level of the present compound in the brain×(100−brain protein binding ratio (%))/100)/(level of the present compound in the plasma×(100−plasma protein binding ratio (%))/100)

Row | Emax at 1 µM [1] | SMILES | further results
1 | 51% | Cc1ncc(CN2CCC(c3ccccn3)CC2C)c(N)n1 (stereo not shown) [Example 38, 2-Methyl-5-[2-methyl-4-(pyridin-2-yl)piperidin-1-ylmethyl]pyrimidin-4-amine] | –
2 | 81% | CCc1ncc(CN2CCC(c3cccnc3)CC2)c(N)n1 [Example 13] | –
3 | 62% | Cc1ccnc(C2CCN(Cc3cnc(C)nc3N)CC2)c1 [Example 57, 2-Methyl-5-[4-(4-methylpyridin-2-yl)piperidin-1-ylmethyl]pyrimidin-4-amine] | –
4 | 66% | Cc1cncc(C2CCN(Cc3cnc(C)nc3N)CC2)c1 [Example 53] | –
5 | 64% | Cc1ncc(CN2CCC(c3cncc(F)c3)CC2)c(N)n1 [Example 7, 5-[4-(5-Fluoropyridin-3-yl)piperidin-1-ylmethyl]-2-methylpyrimidin-4-amine] | –
6 | 92% | Cc1ncc(CN2CCCC(c3cccnc3)CC2)c(N)n1 (stereo not shown) [Example 43, 2-Methyl-5-[4-(pyridin-3-yl)azepan-1-ylmethyl]pyrimidin-4-amine] | –
7 | 62% | Cc1ncc(CN2CCC(c3cncc(F)c3)CC2)c(C)n1 [Example 48, 5-[4-(5-Fluoropyridin-3-yl)piperidin-1-ylmethyl]-2,4-dimethylpyrimidine] | –
8 | 101% | CCc1ncc(CN2CCC(c3ccccn3)CC2)c(N)n1 [Example 12] | –
9 | 62% | CNc1nc(C)ncc1CN1CCC(c2cccnc2)CC1 [Example 28] | –
10 | 82% | Cc1ncc(CN2CCC(c3ccccn3)CC2)cn1 [Example 31] | –
11 | 64% | Nc1nc(C2CC2)ncc1CN1CCC(c2ccccn2)CC1 [Example 19] | –
12 | 62% | Cc1ncc(CN2CCC(c3nccc4ccccc34)CC2)c(N)n1 [Example 8] | –
13 | 59% | Cc1ncc(CN2CCC(c3cccnc3)C(C)C2)c(N)n1 (stereo not shown) [Example 41, 2-Methyl-5-[3-methyl-4-(pyridin-3-yl)piperidin-1-ylmethyl]pyrimidin-4-amine] | –
14 | 49% | Cc1ncc(CN2CCC(c3cccnc3)CC2C)c(N)n1 (stereo not shown) [Example 39, 2-Methyl-5-[2-methyl-4-(pyridin-3-yl)piperidin-1-ylmethyl]pyrimidin-4-amine] | –
15 | 103% | Nc1nc(C2CCCC2)ncc1CN1CCC(c2cccnc2)CC1 [Example 24] | –
16 | 63% | Cc1ncc(CN2CCC(c3cccnc3)CC2)c(N)n1 [Example 6, 2-Methyl-5-[4-(pyridin-3-yl)piperidin-1-ylmethyl]pyrimidin-4-amine] | –
17 | 66% | CNc1nc(C)ncc1CN1CCC(c2ccccn2)CC1 [Example 27] | –
18 | 51% | Cc1ncc(CN2CCC(c3nccs3)CC2)c(N)n1 [Example 47, 2-Methyl-5-[4-(1,3-thiazol-2-yl)piperidin-1-ylmethyl]pyrimidin-4-amine] | –
19 | 70% | Cc1ncc(CN2CCC(c3cc4ccccc4cn3)CC2)c(N)n1 [Example 9, 5-[4-(Isoquinolin-3-yl)piperidin-1-ylmethyl]-2-methylpyrimidin-4-amine] | –
20 | 71% | Cc1ncc(CN2CCCC(c3ccccn3)CC2)c(N)n1 (stereo not shown) [Example 42, 2-Methyl-5-[4-(pyridin-2-yl)azepan-1-ylmethyl]pyrimidin-4-amine] | –
21 | 78% | CC(C)c1ncc(CN2CCC(c3cccnc3)CC2)c(N)n1 [Example 16] | –
22 | 68% | Cc1ncc(CN2CCC(c3cccnc3)CC2)cn1 [Example 32] | –
23 | 105% | Nc1nc(C2CCCC2)ncc1CN1CCC(c2ccccn2)CC1 [Example 23] | –
24 | 54% | Nc1nc(C2CC2)ncc1CN1CCC(c2cccnc2)CC1 [Example 20] | –
25 | 82% | Nc1ncc(CN2CCC(c3ccccn3)CC2)cn1 [Example 36] | bioavailability [2]: 67.2%; Kp uu [3]: 2.28
26 | 72% | Cc1ncc(CN2CCC(c3ccccn3)C(C)C2)c(N)n1 (stereo not shown) [Example 40, 2-Methyl-5-[3-methyl-4-(pyridin-2-yl)piperidin-1-ylmethyl]pyrimidin-4-amine] | –

Row | SMILES | Emax at 1 µM [1] | further results
27 | Cc1ncc(CN2CC=C(c3cncc(F)c3)CC2)c(N)n1 [Example 4, 5-(5-Fluoro-3′,6′-dihydro-3,4′-bipyridin-1′(2′H)-ylmethyl)-2-methylpyrimidin-4-amine] | 65% | –
28 | CCc1ncc(CN2CC=C(c3ccccn3)CC2)c(N)n1 [Example 10, 5-(3′,6′-Dihydro-2,4′-bipyridin-1′(2′H)-ylmethyl)-2-ethylpyrimidin-4-amine] | 110% | –
29 | Nc1nc(C2CCCC2)ncc1CN1CC=C(c2ccccn2)CC1 [Example 21] | 93% | –
30 | CNc1nc(C)ncc1CN1CC=C(c2cccnc2)CC1 [Example 26] | 75% | –
31 | Cc1ncc(CN2CC=C(c3ccccn3)CC2)c(N)n1 [Example 1, 5-(3′,6′-Dihydro-2,4′-bipyridin-1′(2′H)-ylmethyl)-2-methylpyrimidin-4-amine] | 62% | –
32 | Cc1ncc(CN2CC=C(c3cc(Cl)ccn3)CC2)c(N)n1 [Example 55] | 88% | –
33 | Cc1ncc(CN2CC=C(c3ccccn3)CC2)c(C)n1 [Example 50] | 70% | –
34 | CC(C)c1ncc(CN2CC=C(c3ccccn3)CC2)c(N)n1 [Example 14] | 87% | –
35 | Cc1cncc(C2=CCN(Cc3cnc(C)nc3N)CC2)c1 [Example 54] | 60% | –
36 | CNc1nc(C)ncc1CN1CC=C(c2ccccn2)CC1 [Example 25] | 71% | –
37 | Cc1ncc(CN2CC=C(c3cccnc3)CC2)cn1 [Example 30] | 86% | –
38 | Nc1ncc(CN2CC=C(c3ccccn3)CC2)cn1 [Example 34, 5-(3′,6′-Dihydro-2,4′-bipyridin-1′(2′H)-ylmethyl)pyrimidin-2-amine] | 93% | –
39 | Cc1ccnc(C2=CCN(Cc3cnc(C)nc3N)CC2)c1 [Example 51] | 88% | –
40 | Cc1ncc(CN2CC=C(c3cccnc3)CC2)c(C)n1 [Example 49] | 66% | –
41 | Nc1nc(C2CC2)ncc1CN1CC=C(c2ccccn2)CC1 [Example 17] | 72% | –
42 | Nc1ncc(CN2CC=C(c3cccnc3)CC2)cn1 [Example 35] | 86% | –
43 | Cc1ncc(CN2CC=C(c3ccccn3)CC2)cn1 [Example 29, 1′-[(2-Methylpyrimidin-5-yl)methyl]-1′,2′,3′,6′-tetrahydro-2,4′-bipyridine] | 107% | –
44 | Nc1nc(C2CC2)ncc1CN1CC=C(c2cccnc2)CC1 [Example 18] | 58% | –
45 | Cc1cccc(C2=CCN(Cc3cnc(C)nc3N)CC2)n1 [Example 52] | 67% | –
46 | CC(C)c1ncc(CN2CC=C(c3cccnc3)CC2)c(N)n1 [Example 15] | 131% | –
47 | Cc1ncc(CN2CC=C(c3ncccc3F)CC2)c(N)n1 [Example 3, 5-(3-Fluoro-3′,6′-dihydro-2,4′-bipyridin-1′(2′H)-ylmethyl)-2-methylpyrimidin-4-amine] | 69% | –
48 | Nc1nc(C2CCCC2)ncc1CN1CC=C(c2cccnc2)CC1 [Example 22] | 72% | –
49 | Cc1ncc(CN2CC=C(c3cccc(Cl)n3)CC2)c(N)n1 [Example 56] | 40% | –
50 | CCc1ncc(CN2CC=C(c3cccnc3)CC2)c(N)n1 [Example 11] | 93% | –
